Source: US10420341B2, “Herbicidal phenylpyrimidines” (BASF SE, priority 2015, dated 2019)

Columns and labels:
[1] = system: APESV; assay: greenhouse pre-emergence herbicidal test; format: in vivo, Apera spica-venti; conditions: pre-emergence method, scale from 0 to 100
Summary of the method: (§1)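 Damage was rated on a 0 to 100 scale, where 0 is normal growth and 100 is no emergence or full destruction of aerial parts, after 2 to 4 weeks. Treatment was applied pre-emergence, right after sowing, as an aqueous suspension or emulsion via fine nozzles.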

[2] = system: ECHCG; assay: greenhouse post-emergence herbicidal test; format: in vivo, Echinocloa crus-galli; conditions: post-emergence method, scale from 0 to 100
Summary of the method: (§2)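 Read-out is a visual 0–100 injury rating, 100 meaning complete destruction of at least aerial parts and 0 meaning normal growth. It was taken over 2–4 weeks after plants 3–15 cm tall were treated with compound suspended or emulsified in water.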

[3] = system: ALOMY; assay: greenhouse pre-emergence herbicidal test; format: in vivo, Alopercurus myosuroides; conditions: pre-emergence method, application rate 500 g/ha, scale from 0 to 100
Excerpt: The seeds of the test plants were sown separately for each species. For the pre-emergence treatment, the active ingredients, which had been suspended or emulsified in water, were applied directly after sowing by means of finely distributing nozzles. The containers were irrigated gently to promote germination and growth and subsequently covered with transparent plastic hoods until the plants had rooted. This cover caused uniform germination of the test plants, unless this had been impaired by the active ingredients. Depending on the species, the plants were kept at 10-25° C. or 20-35° C., respectively. The test period extended over 2 to 4 weeks. During this time, the plants were tended, and their response to the individual treatments was evaluated. Evaluation was carried out using a scale from 0 to 100. 100 means no emergence of the plants, or complete destruction of at least the aerial moieties, and 0 means no damage, or normal course of growth. […] The plants used in the greenhouse experiments were of the following species: [table]

[4] = system: ECHCG; assay: greenhouse pre-emergence herbicidal test; format: in vivo, Echinocloa crus-galli; conditions: pre-emergence method, scale from 0 to 100
Summary of the method: as §1

[5] = system: ALOMY; assay: greenhouse post-emergence herbicidal test; format: in vivo, Alopercurus myosuroides; conditions: post-emergence method, scale from 0 to 100
Summary of the method: as §2

[6] = system: ABUTH; assay: greenhouse post-emergence herbicidal test; format: in vivo, Abutilon theophrasti; conditions: post-emergence method, scale from 0 to 100
Excerpt: (§3) The seeds of the test plants were sown separately for each species. For the post-emergence treatment, the test plants were first grown to a height of 3 to 15 cm, depending on the plant habit, and only then treated with the active ingredients which had been suspended or emulsified in water. For this purpose, the test plants were either sown directly and grown in the same containers, or they were first grown separately as seedlings and transplanted into the test containers a few days prior to treatment. Depending on the species, the plants were kept at 10-25° C. or 20-35° C., respectively. The test period extended over 2 to 4 weeks. During this time, the plants were tended, and their response to the individual treatments was evaluated. Evaluation was carried out using a scale from 0 to 100. 100 means no emergence of the plants, or complete destruction of at least the aerial moieties, and 0 means no damage, or normal course of growth. […] The plants used in the greenhouse experiments were of the following species: [table]

[7] = system: AMARE; assay: greenhouse post-emergence herbicidal test; format: in vivo, Amaranthus retroflexus; conditions: post-emergence method, scale from 0 to 100
Excerpt: as §3

[8] = system: POLCO; assay: greenhouse post-emergence herbicidal test; format: in vivo, Polygonum convolvulus; conditions: post-emergence method, application rate 1000 g/ha, scale from 0 to 100
Excerpt: as §3

SMILES	herbicidal activity against APESV ([1]; application rate 500 g/ha)	herbicidal activity against ALOMY [3]	herbicidal activity against ECHCG ([4]; application rate 500 g/ha)	herbicidal activity against ALOMY ([5]; application rate 500 g/ha)	herbicidal activity against APESV ([1]; application rate 1000 g/ha)	herbicidal activity against ABUTH ([6]; application rate 1000 g/ha)	herbicidal activity against ECHCG ([2]; application rate 1000 g/ha)	further results
COC(=O)c1nc(C2CC2)ncc1-c1cc(F)ccc1Cl [example 203]	very good (a very good herbicidal activity is given at values of at least 85)	very good (a very good herbicidal activity is given at values of at least 85)	very good (a very good herbicidal activity is given at values of at least 85)	good (A good herbicidal activity is given at values of at least 70)				herbicidal activity against ECHCG ([2]; application rate 500 g/ha): very good (a very good herbicidal activity is given at values of at least 85)
Cc1cccc(C)c1-c1cnc(C2CC2)nc1C(=O)O [example 162]	very good (a very good herbicidal activity is given at values of at least 85)	very good (a very good herbicidal activity is given at values of at least 85)	very good (a very good herbicidal activity is given at values of at least 85)	very good (a very good herbicidal activity is given at values of at least 85)				herbicidal activity against ECHCG ([2]; application rate 500 g/ha): very good (a very good herbicidal activity is given at values of at least 85)
O=C(O)c1nc(C2CC2)ncc1-c1cc(F)ccc1Cl [example 142]	very good (a very good herbicidal activity is given at values of at least 85)	very good (a very good herbicidal activity is given at values of at least 85)	very good (a very good herbicidal activity is given at values of at least 85)	very good (a very good herbicidal activity is given at values of at least 85)				herbicidal activity against ECHCG ([2]; application rate 500 g/ha): very good (a very good herbicidal activity is given at values of at least 85)
CCC(C)c1ncc(-c2ccccc2C)c(C(=O)O)n1 (centres unmarked) [example 41]					very good (a very good herbicidal activity is given at values of at least 85)	very good (a very good herbicidal activity is given at values of at least 85)	good (A good herbicidal activity is given at values of at least 70)	
O=C(O)c1nc(C2CC2)ncc1-c1ccccc1F [example 132]	very good (a very good herbicidal activity is given at values of at least 85)	very good (a very good herbicidal activity is given at values of at least 85)	very good (a very good herbicidal activity is given at values of at least 85)	very good (a very good herbicidal activity is given at values of at least 85)				herbicidal activity against ECHCG ([2]; application rate 500 g/ha): very good (a very good herbicidal activity is given at values of at least 85)
COC(=O)c1nc(C2CC2)ncc1-c1ccccc1Br [example 213]	very good (a very good herbicidal activity is given at values of at least 85)	very good (a very good herbicidal activity is given at values of at least 85)	very good (a very good herbicidal activity is given at values of at least 85)	good (A good herbicidal activity is given at values of at least 70)				herbicidal activity against ECHCG ([2]; application rate 500 g/ha): good (A good herbicidal activity is given at values of at least 70)
CSc1ncc(-c2cccc(Cl)c2Cl)c(C(=O)O)n1 [example 90]								herbicidal activity against ABUTH ([6]; application rate 2000 g/ha): good (A good herbicidal activity is given at values of at least 70); herbicidal activity against ECHCG ([2]; application rate 2000 g/ha): very good (a very good herbicidal activity is given at values of at least 85); herbicidal activity against AMARE ([7]; application rate 2000 g/ha): very good (a very good herbicidal activity is given at values of at least 85)
CSc1ncc(-c2ccc(F)cc2C)c(C(=O)O)n1 [example 94]						good (A good herbicidal activity is given at values of at least 70)	very good (a very good herbicidal activity is given at values of at least 85)	herbicidal activity against POLCO [8]: very good (a very good herbicidal activity is given at values of at least 85)
COc1cc(C)c(-c2cnc(C3CC3)nc2C(=O)O)cc1C [example 169]					very good (a very good herbicidal activity is given at values of at least 85)	very good (a very good herbicidal activity is given at values of at least 85)	good (A good herbicidal activity is given at values of at least 70)	
COc1ncc(-c2cc(C)ccc2C)c(C(=O)O)n1 [example 54]					very good (a very good herbicidal activity is given at values of at least 85)	good (A good herbicidal activity is given at values of at least 70)		herbicidal activity against ECHCG ([4]; application rate 1000 g/ha): very good (a very good herbicidal activity is given at values of at least 85); herbicidal activity against ALOMY ([5]; application rate 1000 g/ha): very good (a very good herbicidal activity is given at values of at least 85); herbicidal activity against AMARE ([7]; application rate 1000 g/ha): very good (a very good herbicidal activity is given at values of at least 85)
COC(=O)c1nc(C2CC2)ncc1-c1cc(C)c(OC)cc1C [example 232]					very good (a very good herbicidal activity is given at values of at least 85)	very good (a very good herbicidal activity is given at values of at least 85)	very good (a very good herbicidal activity is given at values of at least 85)	herbicidal activity against ECHCG ([4]; application rate 1000 g/ha): very good (a very good herbicidal activity is given at values of at least 85)
COC(=O)c1nc(C2CC2)ncc1-c1ccc(F)cc1Cl [example 207]	very good (a very good herbicidal activity is given at values of at least 85)	very good (a very good herbicidal activity is given at values of at least 85)	very good (a very good herbicidal activity is given at values of at least 85)	good (A good herbicidal activity is given at values of at least 70)				
Cc1ccccc1-c1cnc(CC(C)C)nc1C(=O)O [example 40]					good (A good herbicidal activity is given at values of at least 70)	very good (a very good herbicidal activity is given at values of at least 85)	good (A good herbicidal activity is given at values of at least 70)	
CC(C)c1ncc(-c2ccccc2Cl)c(C(=O)O)n1 [example 32]					very good (a very good herbicidal activity is given at values of at least 85)	very good (a very good herbicidal activity is given at values of at least 85)		herbicidal activity against ECHCG ([4]; application rate 1000 g/ha): very good (a very good herbicidal activity is given at values of at least 85); herbicidal activity against AMARE ([7]; application rate 1000 g/ha): good (A good herbicidal activity is given at values of at least 70)
Cc1ccccc1-c1cnc(C2CCC2)nc1C(=O)O [example 263]					good (A good herbicidal activity is given at values of at least 70)	very good (a very good herbicidal activity is given at values of at least 85)	very good (a very good herbicidal activity is given at values of at least 85)	
O=C(O)c1nc(C2CC2)ncc1-c1cccc(F)c1Cl [example 150]					very good (a very good herbicidal activity is given at values of at least 85)	very good (a very good herbicidal activity is given at values of at least 85)		herbicidal activity against ECHCG ([4]; application rate 1000 g/ha): very good (a very good herbicidal activity is given at values of at least 85); herbicidal activity against ALOMY ([5]; application rate 1000 g/ha): very good (a very good herbicidal activity is given at values of at least 85)
O=C(O)c1nc(C2CC2)ncc1-c1ccc(F)cc1Cl [example 146]	very good (a very good herbicidal activity is given at values of at least 85)	very good (a very good herbicidal activity is given at values of at least 85)	very good (a very good herbicidal activity is given at values of at least 85)	very good (a very good herbicidal activity is given at values of at least 85)				
